Structures are written as SMILES.

Test [1] deals with OCI-Ly3 cells. Conditions: 10 nM, up to 4 hours.
The test system of test [2] is OCI-Ly10 cells. Briefly: Dose response of p-ERK by Western blotting. The class given is cell-based. A general note: Immunoblotting shows a protein as a band on a membrane.
Test [3] relates to OCI-Ly10 cells. Particulars: 10 nM, up to 4 hours.
Test [4] relates to OCI-Ly10 cells. Nature of the test: Constitutive IL-10 secretion by ELISA. Format: cell-based. Background: In an ELISA, binding on a coated surface is turned into a signal by an enzyme label.
In test [5] the test system is OCI-Ly10 cells. Nature of the test: IgM/IgG stimulated calcium flux (Fura-2AM). The class given is cell-based. Conditions: OCI-Ly10, inhibitor added 5 min before stimulation. From the text:
(§1) The kinetics of calcium flux were quantitated by optical spectroscopy following standard procedures.
Background: Calcium flux is commonly read through the fluorescence of an indicator in the cells.

For test [6], the system named is OCI-Ly3 cells. Briefly: IgM/IgG stimulated calcium flux (Fura-2AM). Conditions: OCI-Ly3, inhibitor added 5 min before stimulation. The class given is cell-based.
Excerpt: as §1

The test system of test [7] is OCI-Ly10 tumor xenografts. Briefly: OCI-Ly10 tumor xenografts in female SCID mice. Format: in vivo. Conditions: once a day 3 mg/kg or 12 mg/kg, vs vehicle. From the text: Female SCID mice were implanted with 10 million […] cells in Matrigel and tumors were allowed to reach 100 mm^3.
In test [8] the test system is OCI-Ly10 cells. Nature of the test: RT-PCR (Taqman) of NF-kB target genes. Format: cell-based. Conditions: 100 nM, 4 hrs.

For `C=CC(=O)N1CCC[C@@H](n2nc(-c3ccc(Oc4ccccc4)cc3)c3c(N)ncnc32)C1` [Btk inhibitor], the “Phosphorylation of AKT” value in test [1] is listed as “inhibited”; in test [3], “rapidly abolished”. Besides, in test [2], the “concentration that decreases p-ERK” value was 1 nM. The “Phosphorylation of ERK” value in test [3] is on record as “rapidly abolished”. Moreover, in test [4], the “Constitutive IL-10 secretion” value is listed as “inhibited”. Also, the “calcium flux after stimulation” value in test [5] and in test [6] was “dose-dependent reduction” each time. In addition, the tumor growth result in test [7] is on record as “dose-dependent inhibition”. For the same compound, the Myc expression result in test [8] is “maximally downregulated”.

As to `CC[C@H](Nc1ncnc2[nH]cnc12)c1nc2cccc(F)c2c(=O)n1-c1ccccc1` [CAL-101, reference compound], the “concentration that decreases p-ERK” value in test [2] was 100 nM.

For the origin of these results see patent publication US20240065971A1, “METHODS OF TREATING ABC-DLBCL USING INHIBITORS OF BRUTONS TYROSINE KINASE” (Pharmacyclics LLC, priority 2010, published 2024).
